Data on five molecules can be found in US20240024385A1, “PROBIOTIC STRAIN FOR REDUCING SERUM URIC ACID, COMPOSITION AND USE THEREOF” (Ningbo Beiyijia Biotechnology Co., Ltd., priority 2022, published 2024).

For one series, the system named is serum uric acid. Put plainly: Combined use of composition 6 with a uric acid-reducing drug, serum uric acid in hyperuricemia patients with tophi. In kind it is in vivo, human. Also noted: Serum uric acid: unit not given here. The following applies: for Serum uric acid: hyperuricemia patients with tophi, febuxostat 20 mg/day or benzbromarone 25 mg/day; for Effect on increase of serum uric acid level caused by dissolution of urate crystals by composition 6: small dose combined with composition 6 (febuxostat 20 mg/day or benzbromarone 25 mg/day). An excerpt:
The process of dissolving urate crystals and tophi will result in a temporary increase of the serum uric acid level, which may lead to acute gout inflammation. In order to relieve the increase of the serum uric acid level caused by the dissolution of urate crystals or tophi, the effect of combined use of the composition 6 with a small-dose uric acid-reducing drug on the inhibition of the rise of the serum uric acid level was investigated.
Fifty hyperuricemia patients with tophi were recruited as volunteers, divided into 5 groups, and separately administered with the composition 6 and the uric acid-reducing drug (febuxostat 20 mg/day or benzbromarone 25 mg/day) alone or in combination. The change of serum uric acid during the intervention period was observed.

For series [1] the following is noted: 20° C.; cited from earlier work.

Consider `CCc1oc2ccccc2c1C(=O)c1cc(Br)c(O)c(Br)c1` [benzbromarone], for which the Serum uric acid was 640 ± 78 with serum uric acid (Day 0 (before intervention)), 593 ± 71 with serum uric acid (Day 30), 463 ± 53 in the series on serum uric acid (Day 60) and 405 ± 37 in the series with serum uric acid (Day 90). Besides, in the series with serum uric acid, the “Effect on increase of serum uric acid level caused by dissolution of urate crystals by composition 6” value is “can inhibit the increase of the serum uric acid level”.

`Cc1nc(-c2ccc(OCC(C)C)c(C#N)c2)sc1C(=O)O` [febuxostat]: the Serum uric acid with serum uric acid (Day 0 (before intervention)) was determined as 631 ± 51; with serum uric acid (Day 30), 571 ± 52; in the series with serum uric acid (Day 60), 478 ± 57; in the series on serum uric acid (Day 90), 416 ± 59. The “Effect on increase of serum uric acid level caused by dissolution of urate crystals by composition 6” value in the series with serum uric acid is recorded as “can inhibit the increase of the serum uric acid level”.

For `Nc1nc2nc[nH]c2c(=O)[nH]1` [guanine], the Solubility in water in series [1] is 0.17 mg/100 mL.

Regarding `Nc1nc2c(ncn2[C@@H]2O[C@H](COP(=O)(O)O)[C@@H](O)[C@H]2O)c(=O)[nH]1` [guanosine monophosphate], the Solubility in water in series [1] is 20 g/100 mL.

For the molecule `Nc1nc2c(ncn2[C@@H]2O[C@H](CO)[C@@H](O)[C@H]2O)c(=O)[nH]1` [guanosine], the Solubility in water in series [1] was 77.6 mg/100 mL.
